Values after ≈ are worked out from the molar mass of the structure shown. Active and inactive are the calls of the source. The calls are words filed in the database; no cut-off is given here.
Tests used:
Candida albicans [1] = experiment: Antifungal activity against Candida albicans ATCC 10231 assessed as reduction in microbial growth; assay type: functional
Pichia kudriavzevii [2] = experiment: Fungicidal activity against Candida krusei DSM 6128; assay type: functional
Nakaseomyces glabratus [3] = experiment: Antifungal activity against Candida glabrata ATCC 90030 assessed as reduction in microbial growth; assay type: functional
Candida albicans [4] = experiment: Antifungal activity against fluconazole-sensitive Candida albicans Gu4 assessed as reduction in microbial growth; assay type: functional
Saccharomyces cerevisiae [5] = experiment: Antifungal activity against Saccharomyces cerevisiae ATCC 9763 assessed as reduction in microbial growth; assay type: functional
Saccharomyces cerevisiae [6] = experiment: Fungicidal activity against Saccharomyces cerevisiae ATCC 9763; assay type: functional
Candida albicans [7] = experiment: Antifungal activity against fluconazole-sensitive Candida albicans B3 assessed as reduction in microbial growth; assay type: functional
Candida albicans [8] = experiment: Antifungal activity against fluconazole-resistant Candida albicans F5 assessed as reduction in microbial growth; assay type: functional
Saccharomyces cerevisiae [9] = experiment: Inhibition of Saccharomyces cerevisiae DNA topoisomerase 2 assessed as decrease in relaxation of supercoiled DNA using supercoiled pBR322 plasmid DNA at 1 to 200 uM gel electrophoresis method; conditions: dose 1-200 µM
Candida albicans [10] = experiment: Antibiofilm activity against Candida albicans ATCC 10231 at concentration of 0.25 MIC by XTT assay; assay type: functional, organism-based
Candida albicans [11] = experiment: Antifungal activity against fluconazole-resistant Candida albicans Gu5 assessed as reduction in microbial growth; assay type: functional
Nakaseomyces glabratus [12] = experiment: Fungicidal activity against Candida glabrata DSM 11226; assay type: functional
Candida parapsilosis [13] = experiment: Fungicidal activity against Candida parapsilosis DSM 5784; assay type: functional; conditions: Lodderomyces parapsilosis
Pichia kudriavzevii [14] = experiment: Antifungal activity against Candida krusei ATCC 6258 assessed as reduction in microbial growth; assay type: functional
Candida albicans [15] = experiment: Fungicidal activity against Candida albicans ATCC 10231; assay type: functional
Candida parapsilosis [16] = experiment: Antifungal activity against Candida parapsilosis ATCC 22019 assessed as reduction in microbial growth; assay type: functional; conditions: Lodderomyces parapsilosis
Candida albicans [17] = experiment: Antifungal activity against fluconazole-resistant Candida albicans B4 assessed as reduction in microbial growth; assay type: functional
Candida albicans [18] = experiment: Antifungal activity against fluconazole-sensitive Candida albicans F2 assessed as reduction in microbial growth; assay type: functional
[19] = Ratio of MFC for fungicidal activity against Saccharomyces cerevisiae ATCC 9763 to MIC for antifungal activity against Saccharomyces cerevisiae ATCC 9763; assay type: functional
Candida albicans [20] = experiment: Growth inhibition of Candida albicans ATCC 10231 assessed as reduction in yeast to mycelium formation by measuring reduction in hyphal growth at concentration of 0.25 MIC after 3 hrs in YPG medium by light microscopic method relative to control; assay type: functional, organism-based
Candida albicans [21] = experiment: Growth inhibition of Candida albicans ATCC 10231 assessed as reduction in yeast to mycelium formation by measuring reduction in hyphal growth at concentration of 0.25 MIC after 3 hrs in G1cNAc medium by light microscopic method relative to control; assay type: functional, organism-based
Candida albicans [22] = experiment: Growth inhibition of Candida albicans ATCC 10231 assessed as reduction in yeast to mycelium formation by measuring reduction in hyphal growth at 0.25 MIC after 3 hrs by light microscopic method relative to control; assay type: functional
Saccharomyces cerevisiae [23] = experiment: Inhibition of Saccharomyces cerevisiae DNA topoisomerase 2 assessed as decrease in relaxation of supercoiled DNA using supercoiled pBR322 plasmid DNA at 100 to 150 uM gel electrophoresis method; conditions: dose 100-150 µM

| SMILES | MIC90 (Candida albicans [1]) | MIC90 (Nakaseomyces glabratus [3]) | MIC90 (Candida albicans [4]) | MIC90 (Saccharomyces cerevisiae [5]) | MFC (Saccharomyces cerevisiae [6]) | MIC90 (Candida albicans [7]) | MIC90 (Candida albicans [8]) | inhibition (Saccharomyces cerevisiae [9]) | MIC90 (Candida albicans [11]) | MIC90 (Pichia kudriavzevii [14]) | MIC90 (Candida parapsilosis [16]) | MIC90 (Candida albicans [17]) | MIC90 (Candida albicans [18]) | Ratio [19] | further results |
| --- | --- | --- | --- | --- | --- | --- | --- | --- | --- | --- | --- | --- | --- | --- | --- |
| NCCCC[C@H](N)C(=O)OCCNc1c2ccccc2nc2cccc([N+](=O)[O-])c12 | 4 µg/mL | 16 µg/mL | 4 µg/mL | 0.5 µg/mL | 1 µg/mL (≈ 2.43 µM) | 4 µg/mL | > 64 µg/mL | inactive | > 64 µg/mL | 16 µg/mL | 32 µg/mL | > 64 µg/mL | 4 µg/mL | >=1 | MFC (Pichia kudriavzevii [2]): 64 µg/mL (≈ 156 µM); Activity (Candida albicans [10]): Active; MFC (Nakaseomyces glabratus [12]): 64 µg/mL (≈ 156 µM); MFC (Candida parapsilosis [13]): 128 µg/mL (≈ 311 µM); MFC (Candida albicans [15]): 16 µg/mL (≈ 38.9 µM) |
| NCCCC[C@H](N)C(=O)NCCCNc1c2ccccc2nc2cccc([N+](=O)[O-])c12 | 8 µg/mL | 32 µg/mL | 32 µg/mL | 16 µg/mL | 16 µg/mL (≈ 37.7 µM) | 16 µg/mL | 64 µg/mL | Active | 32 µg/mL | 64 µg/mL | 32 µg/mL | 16 µg/mL | 64 µg/mL | >=1 | growth inhibition (GI) (Candida albicans [20]): Active; Activity (Candida albicans [10]): Active; growth inhibition (GI) (Candida albicans [21]): Active; MFC (Nakaseomyces glabratus [12]): > 128 µg/mL; MFC (Candida parapsilosis [13]): > 128 µg/mL; MFC (Candida albicans [15]): 16 µg/mL (≈ 37.7 µM); growth inhibition (GI) (Candida albicans [22]): Active; inhibition (Saccharomyces cerevisiae [23]): Active |
| Cc1ccc([N+](=O)[O-])c2c(NCCCNC(=O)[C@@H](N)CCCCN)c3ccccc3nc12 | 32 µg/mL | > 64 µg/mL | > 64 µg/mL | 32 µg/mL | 32 µg/mL (≈ 73 µM) | > 64 µg/mL | > 64 µg/mL | Active | > 64 µg/mL | 64 µg/mL | > 64 µg/mL | > 64 µg/mL | > 64 µg/mL | >=1 | growth inhibition (GI) (Candida albicans [21]): inactive; growth inhibition (GI) (Candida albicans [22]): 100% |
| OC(Cn1cncn1)(Cn1cncn1)c1ccc(F)cc1F [FLUCONAZOLE] | 8 µg/mL | – | 4 µg/mL | – | – | 1 µg/mL | > 64 µg/mL | – | > 64 µg/mL | – | – | 16 µg/mL | 8 µg/mL | – | – |
| Cc1ccc([N+](=O)[O-])c2c(NCCOC(=O)CCCCC(=O)OCCNc3c4ccccc4nc4c(C)ccc([N+](=O)[O-])c34)c3ccccc3nc12 | > 32 µg/mL | > 32 µg/mL | – | > 32 µg/mL | – | – | – | – | – | > 32 µg/mL | > 32 µg/mL | – | – | – | – |
| CN(CCCNc1c2ccccc2nc2cccc([N+](=O)[O-])c12)CCCNc1c2ccccc2nc2cccc([N+](=O)[O-])c12 | > 16 µg/mL | > 16 µg/mL | – | 4 µg/mL | 4 µg/mL (≈ 6.78 µM) | – | – | – | – | > 16 µg/mL | > 16 µg/mL | – | – | >=1 | – |
| Nc1cccc2nc3ccccc3c(NCCO)c12 | > 64 µg/mL | > 64 µg/mL | – | > 64 µg/mL | – | – | – | – | – | > 64 µg/mL | > 64 µg/mL | – | – | – | – |
| Cc1ccc([N+](=O)[O-])c2c(NCCCN(C)CCCNc3c4ccccc4nc4c(C)ccc([N+](=O)[O-])c34)c3ccccc3nc12 | > 16 µg/mL | > 16 µg/mL | – | 8 µg/mL | 8 µg/mL (≈ 13 µM) | – | – | – | – | > 16 µg/mL | > 16 µg/mL | – | – | >=1 | – |

Reference: ChEMBL document CHEMBL4715897, “A new 1-nitro-9-aminoacridine derivative targeting yeast topoisomerase II able to overcome fluconazole-resistance” (2021)
